Source: ChEMBL document CHEMBL1201862, “PubChem BioAssay data set” (2004)
Active and inactive are the calls of the source.

What was measured:
[1] = target: T1, Corticotropin-releasing factor receptor 2/Corticotropin-releasing factor-binding protein (Homo sapiens, UniProt P24387+Q13324); assay: Dose Response confirmation of uHTS hits for small molecule antagonists of the CRF-binding protein and CRF-R2 receptor complex.; format: functional; settings: read-out: IC50_Mean
T1 sequence (Q13324 whole entry): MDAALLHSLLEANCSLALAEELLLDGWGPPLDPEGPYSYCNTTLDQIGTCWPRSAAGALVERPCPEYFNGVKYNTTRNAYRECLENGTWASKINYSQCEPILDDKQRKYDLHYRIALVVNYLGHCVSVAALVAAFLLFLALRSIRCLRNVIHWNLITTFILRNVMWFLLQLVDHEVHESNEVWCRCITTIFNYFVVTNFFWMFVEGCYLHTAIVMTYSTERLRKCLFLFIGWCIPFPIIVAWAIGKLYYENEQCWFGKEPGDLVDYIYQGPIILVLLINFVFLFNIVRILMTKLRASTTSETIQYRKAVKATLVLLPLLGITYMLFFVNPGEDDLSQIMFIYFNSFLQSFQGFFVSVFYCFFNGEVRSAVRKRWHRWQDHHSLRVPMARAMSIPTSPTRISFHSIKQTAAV
T1 sequence (P24387 whole entry): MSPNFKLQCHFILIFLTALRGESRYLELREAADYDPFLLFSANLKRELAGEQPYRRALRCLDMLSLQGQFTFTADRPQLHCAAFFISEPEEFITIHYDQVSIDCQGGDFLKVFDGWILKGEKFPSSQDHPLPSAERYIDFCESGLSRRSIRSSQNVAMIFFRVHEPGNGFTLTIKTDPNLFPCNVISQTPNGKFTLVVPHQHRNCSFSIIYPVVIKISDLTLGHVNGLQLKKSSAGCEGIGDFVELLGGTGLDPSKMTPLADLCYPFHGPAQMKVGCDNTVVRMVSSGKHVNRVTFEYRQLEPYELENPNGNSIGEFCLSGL

[2] = target: T1, Corticotropin-releasing factor receptor 2/Corticotropin-releasing factor-binding protein; assay: activators of CRF receptor 2 with binding protein – uHTS hits, confirmation (AID 602473); format: functional; settings: read-out: EC50_Mean
[3] = CRF-BP/CRF-R2 complex antagonists, dose response, cell-based, uHTS hits, 384-well (AID 651639); format: functional, Homo sapiens; settings: read-out: IC50_Mean
[4] = target: ADP-ribosylation factor GTPase-activating protein 1 (Rattus norvegicus, UniProt Q62848); assay: Fluorescence polarization-based biochemical high throughput dose response screening assay to identify inhibitors of ADP-ribosylation factor GTPase activating protein 1 (ARFGAP1).; format: functional
Chain of ADP-ribosylation factor GTPase-activating protein 1 (Q62848 whole entry): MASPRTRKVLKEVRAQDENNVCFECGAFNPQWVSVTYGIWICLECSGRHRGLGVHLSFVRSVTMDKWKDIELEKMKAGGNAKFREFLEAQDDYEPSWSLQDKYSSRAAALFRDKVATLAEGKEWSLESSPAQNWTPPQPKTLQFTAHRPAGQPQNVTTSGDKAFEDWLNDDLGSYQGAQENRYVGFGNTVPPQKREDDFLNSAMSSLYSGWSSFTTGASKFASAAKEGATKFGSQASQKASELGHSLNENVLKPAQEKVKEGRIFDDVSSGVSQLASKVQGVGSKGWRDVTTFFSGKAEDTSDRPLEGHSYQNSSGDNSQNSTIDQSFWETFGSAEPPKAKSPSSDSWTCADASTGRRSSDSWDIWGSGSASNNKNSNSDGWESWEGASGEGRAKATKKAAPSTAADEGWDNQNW

[5] = NIH-3T3 fibroblast cytotoxicity, dose response, cytotoxicity control, cell-based, fluorescence, Alamar Blue, secondary assay (AID 2327); format: functional;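 note: NIH-3T3 mouse fibroblasts cultured with fluconazole at 8 µg/mL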
[6] = inhibitors of intracellular T. cruzi replication, confirmation, NIH3T3 host cells, beta-gal luminescence (AID 2044); format: functional, cell-based;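 note: intracellular parasites grown in NIH/3T3 mouse fibroblasts as host cells; luminescent beta-galactosidase reporter signal from transgenic T. cruzi replicating inside host cells; inhibitors lower the luminescence signal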
[7] = HEK293T cytotoxicity, dose response, cytotoxicity control for miR-122 modulator project, cell-based, activator set, cherry-pick (AID 720690); format: functional;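 note: HEK293T human cells scored for general mammalian cytotoxicity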
[8] = growth suppression of beta-catenin-knockout colon cells, dose response, cell-based, HCT116, human colon tumor (AID 1045); format: functional;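 note: HCT116 colon tumor cells with beta catenin knocked out; cells exposed to compound for 60 hours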
[9] = growth suppression of PTEN-null colon cells, dose response, cell-based, HCT116 PTEN knockout (AID 1047); format: functional;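 note: HCT116 colon tumor cells with PTEN knocked out; cells exposed to compound for 60 hours before readout; potency for loss of cell viability measured by luminescence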
[10] = cytotoxicity toward NIH3T3 fibroblasts, dose response, counter-screen, cell-based, ATP luminescence, mouse fibroblasts (AID 2010); format: functional;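 note: cells exposed to compound for about 90 hours before reading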
[11] = miR-122 activators in hepatoma reporter cells, dose response, cell-based, Huh7 psiCHECK-miR122, Renilla luciferase, cherry-picked (AID 651956); format: functional;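 note: huh7 hepatoma cells stably carrying a psiCHECK-2 miR-122 sensor plasmid; renilla luciferase signal reporting endogenous miR-122 activity after 48 h compound exposure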
[12] = C. albicans growth with fluconazole, confirmation, fluorescence, retest (AID 2467); format: functional, cell-based
[13] = MDA-MB-231 cell growth inhibition, dose response, cytotoxicity control for RAD54 inhibitor project, CellTiter-Glo luminescence, cherry-pick (AID 651692); format: functional, cell-based
[14] = microbe, parasite or virus in culture; format: functional; settings: Mycobacterium tuberculosis
Saccharomyces cerevisiae = assay: NALP1 inhibitor project selectivity study, Caspase-1/ASC signal blockade IC50 in S. cerevisiae (AID 488863); format: functional, organism-based
[15] = Luminescence Cell-Based Dose Retest to Confirm Inhibitors of Cancer Stem Cells. [Related pubchem assays (depositor defined):AID2717, AID2721]; format: functional; settings: Homo sapiens
[16] = target: T2, NACHT, LRR and PYD domains-containing protein 1 (Homo sapiens, UniProt Q9C000); assay: NALP1 inhibitors in yeast, dose response, luminescent (AID 488860); format: functional
T2 sequence (Q9C000 whole entry): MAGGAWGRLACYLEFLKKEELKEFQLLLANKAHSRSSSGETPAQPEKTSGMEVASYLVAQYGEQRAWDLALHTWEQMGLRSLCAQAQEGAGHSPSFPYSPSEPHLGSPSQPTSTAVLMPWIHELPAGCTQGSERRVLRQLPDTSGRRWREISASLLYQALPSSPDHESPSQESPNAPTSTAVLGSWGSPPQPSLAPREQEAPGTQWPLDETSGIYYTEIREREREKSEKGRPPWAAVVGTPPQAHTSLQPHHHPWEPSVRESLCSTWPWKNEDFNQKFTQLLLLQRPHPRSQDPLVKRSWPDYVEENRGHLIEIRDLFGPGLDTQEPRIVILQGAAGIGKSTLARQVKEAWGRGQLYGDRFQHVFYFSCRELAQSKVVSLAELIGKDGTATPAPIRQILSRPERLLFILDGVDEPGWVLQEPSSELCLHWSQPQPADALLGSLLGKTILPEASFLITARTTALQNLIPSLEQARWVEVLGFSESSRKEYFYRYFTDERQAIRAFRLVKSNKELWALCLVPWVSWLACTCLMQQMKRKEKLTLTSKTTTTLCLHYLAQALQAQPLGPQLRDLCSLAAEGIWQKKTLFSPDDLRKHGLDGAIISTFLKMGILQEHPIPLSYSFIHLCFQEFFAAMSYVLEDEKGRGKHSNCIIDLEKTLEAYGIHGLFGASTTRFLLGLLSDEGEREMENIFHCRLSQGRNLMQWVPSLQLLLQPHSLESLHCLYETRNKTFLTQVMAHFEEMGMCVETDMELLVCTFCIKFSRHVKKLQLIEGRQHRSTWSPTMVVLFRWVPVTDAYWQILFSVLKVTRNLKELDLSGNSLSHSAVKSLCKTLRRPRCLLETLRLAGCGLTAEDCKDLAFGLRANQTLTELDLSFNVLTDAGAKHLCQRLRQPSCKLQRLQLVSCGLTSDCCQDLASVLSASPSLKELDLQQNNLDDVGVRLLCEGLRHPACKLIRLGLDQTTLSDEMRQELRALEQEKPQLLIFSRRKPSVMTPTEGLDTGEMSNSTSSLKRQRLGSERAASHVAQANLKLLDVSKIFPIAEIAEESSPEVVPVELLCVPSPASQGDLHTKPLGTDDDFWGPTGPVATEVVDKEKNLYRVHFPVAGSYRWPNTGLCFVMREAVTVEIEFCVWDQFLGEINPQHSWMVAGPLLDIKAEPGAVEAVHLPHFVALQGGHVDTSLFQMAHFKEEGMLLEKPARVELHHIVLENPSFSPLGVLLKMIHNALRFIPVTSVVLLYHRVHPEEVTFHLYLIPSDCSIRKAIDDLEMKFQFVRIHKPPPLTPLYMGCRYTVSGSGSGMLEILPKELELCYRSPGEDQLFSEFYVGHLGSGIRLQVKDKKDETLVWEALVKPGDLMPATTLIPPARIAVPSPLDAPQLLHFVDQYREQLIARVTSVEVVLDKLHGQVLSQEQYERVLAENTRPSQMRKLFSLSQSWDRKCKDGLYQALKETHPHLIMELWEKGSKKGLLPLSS

[17] = target: T3, DNA repair and recombination protein RAD54-like (Homo sapiens, UniProt Q92698); assay: inhibitors of human RAD54 branch migration, confirmation, biochemical, fluorescence, cherry-picked samples, dose series (AID 651657); format: functional
T3 sequence (Q92698 whole entry): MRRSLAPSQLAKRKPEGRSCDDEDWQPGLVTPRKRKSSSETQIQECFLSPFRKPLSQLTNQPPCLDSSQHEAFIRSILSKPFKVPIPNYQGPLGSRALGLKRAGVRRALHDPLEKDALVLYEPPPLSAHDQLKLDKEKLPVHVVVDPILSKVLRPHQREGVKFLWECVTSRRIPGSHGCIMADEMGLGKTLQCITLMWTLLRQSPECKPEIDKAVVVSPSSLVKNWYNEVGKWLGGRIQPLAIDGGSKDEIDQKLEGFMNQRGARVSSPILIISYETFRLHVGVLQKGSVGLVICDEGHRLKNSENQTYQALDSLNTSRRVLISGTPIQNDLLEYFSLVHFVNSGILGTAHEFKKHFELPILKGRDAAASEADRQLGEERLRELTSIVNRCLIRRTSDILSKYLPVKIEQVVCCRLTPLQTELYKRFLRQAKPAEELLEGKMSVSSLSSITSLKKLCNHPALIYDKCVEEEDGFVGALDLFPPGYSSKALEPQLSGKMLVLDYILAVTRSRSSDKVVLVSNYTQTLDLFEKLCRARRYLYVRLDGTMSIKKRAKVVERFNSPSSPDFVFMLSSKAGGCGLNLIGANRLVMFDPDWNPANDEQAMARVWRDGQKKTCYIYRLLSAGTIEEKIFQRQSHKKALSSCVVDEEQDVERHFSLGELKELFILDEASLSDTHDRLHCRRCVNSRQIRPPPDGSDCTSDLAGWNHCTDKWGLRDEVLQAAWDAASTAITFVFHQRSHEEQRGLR

[18] = target: T4, DNA repair protein RAD52 homolog (Homo sapiens, UniProt P43351); format: functional, biochemical
T4 sequence (P43351 whole entry): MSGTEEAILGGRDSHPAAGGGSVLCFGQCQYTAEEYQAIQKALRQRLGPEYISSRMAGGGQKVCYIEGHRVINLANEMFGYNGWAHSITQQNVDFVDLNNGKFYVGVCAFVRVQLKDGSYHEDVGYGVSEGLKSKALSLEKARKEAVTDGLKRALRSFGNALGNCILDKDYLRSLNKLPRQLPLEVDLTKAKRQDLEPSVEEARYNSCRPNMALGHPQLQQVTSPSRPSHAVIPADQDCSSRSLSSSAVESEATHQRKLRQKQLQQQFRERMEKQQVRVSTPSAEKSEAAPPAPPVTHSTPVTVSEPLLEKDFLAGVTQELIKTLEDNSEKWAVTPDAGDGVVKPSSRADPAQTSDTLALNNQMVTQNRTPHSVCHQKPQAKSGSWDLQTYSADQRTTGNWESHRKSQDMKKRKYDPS

[19] = target: Broad substrate specificity ATP-binding cassette transporter ABCG2 (Homo sapiens, UniProt Q9UNQ0); assay: ABCG2 efflux pump inhibitors, dose response, Ig-MXP3 cells, flow cytometry (AID 1690); format: functional
Chain of Broad substrate specificity ATP-binding cassette transporter ABCG2 (Q9UNQ0 whole entry, the tested form may be a part): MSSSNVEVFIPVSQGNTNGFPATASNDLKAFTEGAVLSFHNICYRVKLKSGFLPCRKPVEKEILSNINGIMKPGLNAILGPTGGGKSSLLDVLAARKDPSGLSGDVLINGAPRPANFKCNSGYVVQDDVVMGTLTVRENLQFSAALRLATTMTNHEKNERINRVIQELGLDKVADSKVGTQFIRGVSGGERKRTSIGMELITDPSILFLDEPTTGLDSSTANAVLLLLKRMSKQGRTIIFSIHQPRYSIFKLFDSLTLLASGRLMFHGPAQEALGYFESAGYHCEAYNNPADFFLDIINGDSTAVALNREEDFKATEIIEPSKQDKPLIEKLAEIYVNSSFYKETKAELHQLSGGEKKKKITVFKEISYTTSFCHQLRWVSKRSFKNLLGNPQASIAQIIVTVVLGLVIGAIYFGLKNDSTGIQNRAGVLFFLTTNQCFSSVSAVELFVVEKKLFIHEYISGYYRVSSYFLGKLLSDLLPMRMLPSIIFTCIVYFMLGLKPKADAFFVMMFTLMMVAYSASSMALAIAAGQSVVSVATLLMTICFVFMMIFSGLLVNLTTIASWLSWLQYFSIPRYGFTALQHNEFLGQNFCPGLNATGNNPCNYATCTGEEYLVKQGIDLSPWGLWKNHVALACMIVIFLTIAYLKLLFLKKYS

[20] = target: T5, Sentrin-specific protease 1 (Homo sapiens, UniProt Q9P0U3); assay: Dose response confirmation of small molecule inhibitors of the catalytic domain of the SUMO protease, SENP1 in a FRET assay.; format: functional; settings: read-out: IC50_Mean
T5 sequence (Q9P0U3 whole entry, the tested form may be a part): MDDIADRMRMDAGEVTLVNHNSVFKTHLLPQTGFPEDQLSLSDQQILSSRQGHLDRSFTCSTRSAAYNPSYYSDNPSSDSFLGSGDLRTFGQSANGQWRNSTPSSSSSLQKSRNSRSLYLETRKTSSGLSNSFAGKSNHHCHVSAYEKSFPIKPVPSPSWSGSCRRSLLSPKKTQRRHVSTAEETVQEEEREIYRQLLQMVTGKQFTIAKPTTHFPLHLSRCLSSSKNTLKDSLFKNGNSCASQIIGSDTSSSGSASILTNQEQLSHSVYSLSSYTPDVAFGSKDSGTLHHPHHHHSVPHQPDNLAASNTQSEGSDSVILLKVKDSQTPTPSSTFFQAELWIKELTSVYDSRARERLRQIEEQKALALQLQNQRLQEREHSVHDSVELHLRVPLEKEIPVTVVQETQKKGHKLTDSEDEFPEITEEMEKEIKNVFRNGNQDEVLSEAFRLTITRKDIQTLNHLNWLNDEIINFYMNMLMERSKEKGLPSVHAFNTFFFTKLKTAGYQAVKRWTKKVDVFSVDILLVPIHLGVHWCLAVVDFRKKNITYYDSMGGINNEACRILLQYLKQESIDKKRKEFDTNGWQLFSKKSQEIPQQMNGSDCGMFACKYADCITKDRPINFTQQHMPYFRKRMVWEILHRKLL

[21] = target: T5, Sentrin-specific protease 1; assay: potency of human SENP1 inhibitors, dose response, biochemical, kinetic FRET (AID 651697); format: functional; settings: read-out: IC50_Mean
[22] = HeLa cell cytotoxicity, dose response, cytotoxicity control for MgcRacGAP inhibitor project (AID 624300); format: functional
[23] = target: T6, Rac GTPase-activating protein 1 (Homo sapiens, UniProt Q9H0H5); assay: MgcRacGAP GTPase-activating activity inhibitors, confirmation, biochemical, ADP Hunter fluorescence, primary and confirmatory (AID 624330); format: functional
T6 sequence (Q9H0H5 whole entry): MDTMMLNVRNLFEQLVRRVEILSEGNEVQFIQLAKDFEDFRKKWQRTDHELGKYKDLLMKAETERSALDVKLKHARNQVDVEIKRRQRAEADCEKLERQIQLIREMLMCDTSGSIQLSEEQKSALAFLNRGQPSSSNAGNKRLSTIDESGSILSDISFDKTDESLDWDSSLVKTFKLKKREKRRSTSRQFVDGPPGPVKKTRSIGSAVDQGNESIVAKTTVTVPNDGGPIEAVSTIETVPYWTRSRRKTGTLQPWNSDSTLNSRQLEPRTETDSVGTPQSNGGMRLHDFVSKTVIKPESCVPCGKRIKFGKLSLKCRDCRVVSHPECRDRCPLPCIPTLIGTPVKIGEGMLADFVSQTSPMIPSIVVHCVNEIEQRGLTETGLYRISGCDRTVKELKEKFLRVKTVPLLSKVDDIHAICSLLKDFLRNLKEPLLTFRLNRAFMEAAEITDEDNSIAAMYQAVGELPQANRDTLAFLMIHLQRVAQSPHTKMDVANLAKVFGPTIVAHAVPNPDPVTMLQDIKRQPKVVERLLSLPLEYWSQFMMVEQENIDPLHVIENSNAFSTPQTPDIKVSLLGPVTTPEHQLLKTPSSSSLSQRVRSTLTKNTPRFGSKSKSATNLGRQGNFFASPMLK

With CCN(Cc1ccccc1)C(c1cccc(C#N)c1)c1nnnn1C(C)(C)C (stereo unspecified) the IC50 [1] was 1 µM (active), the EC50 [2] was > 53 µM (inactive) and the IC50 [3] was 7.23 µM (active).
For O=C(Nc1ccc(-c2nc3ccccc3[nH]2)cc1)c1ccc2c(c1)OCO2, the IC50 [4] was 42 µM (inactive).
In the case of N=c1c2c(-c3ccccc3)c(-c3ccccc3)n(Cc3ccccc3)c2ncn1CCO, the EC50 [5] is reported as > 150 µM (inactive), the EC50 [6] is reported as 2.42 µM (active) and the AC50 [7] is reported as 23.4 µM (active). For the same compound, the EC50 [8] was 0.637 µM (active), the EC50 [9] was 0.555 µM (active) and the EC50 [10] was > 30 µM (not active). For the same compound, the AC50 [11] was 30.5 µM (active) and the EC50 [12] was > 38 µM (not active).
With OC(CN1CCCCC1)Cn1c2ccc(Cl)cc2c2cc(Cl)ccc21 (stereo unspecified) the AC50 [13] was 32.1 µM (active), the CC50 [14] was 14.5 µM (active) and the EC50 [6] was 2.43 µM (active). The IC50 (Saccharomyces cerevisiae) was 7.1 µM (active), the AC50 [15] was 5.53 µM (active) and the IC50 [16] was 10.2 µM (active). For the same compound, the EC50 [10] was 10.8 µM (active), the AC50 [17] was 27.2 µM (active) and the AC50 [18] was 12.1 µM (active).
For CC1=NN(c2ccc([N+](=O)[O-])cc2)C(=O)/C1=C/N(C)C, the EC50 [19] was 4 µM (active).
With CCOC(=O)/C=C/c1cc(F)ccc1O the IC50 [20] was 11.2 µM (active) and the IC50 [21] was 13.8 µM (active).
With COc1cc(/C=N/NC(=O)CCn2c3ccccc3c3ccccc32)ccc1O the CC50 [22] was 100 µM (active) and the IC50 [23] was 85.8 µM (active).
